Results reported in patent US11998600B2, “Enhancing the therapeutic activity of an immune checkpoint inhibitor” (MaineHealth, priority 2015, dated 2024).

Tested on: Fak
Experiment: Fak phosphorylation in endothelial cells attached to collagen peptides
Format: cell-based, human
Details: serum free conditions
Protocol: Whole cell and CAM tissue lysates were collected in RIPA buffer supplemented with 1× protease inhibitor and 1× phosphatase inhibitor and were run on polyacrylamide gels using denaturing conditions. Prior to loading the gels, 6× sample buffer was added to each of the lysates (final concentration 1×) and boiled for five minutes. Twenty to 50 μg of total protein were loaded into each lane. For detection of proteins larger than 50 kD, 10% gels were used; for proteins smaller than 50 kD 15% gels were used. Gels were run at 60 volts (v) until the dye front passed through the stacking gel, and then the voltage was increased to 100V for the remainder of the separation. Precision Plus protein standards (Bio-Rad) were used to visualize migration. […] Western blot bands were quantified using Image J software based on pixel intensity.
Because both RGD containing peptides bind αvβ3 coupled with the differential effect of these peptides on angiogenesis and inflammation, it was determined whether the RGD peptides differentially altered αvβ3-mediated signaling. […] Therefore, the differential phosphorylation of these protein kinases following the early mechanical-mediated interactions with the RGD containing collagen peptides was assessed. […]

QGPRGDKGE [Mab P-2]
Fak phosphorylation following ligation of peptide: Minimal Fak phosphorylation
